Measured values: patent US9765092B2, “Tricyclic piperidine compounds” (ACTELION PHARMACEUTICALS LTD, priority 2013, dated 2017)

Molecular target: human TPH1 (Homo sapiens (Human), UniProt P17752)
Test: Biochemical in vitro assay using fluorescence readout (TPH1 inhibition)
[1] = human TPH1, fluorescence readout
[2] = full length human TPH1, 40 μM L-tryptophan, 15° C., 60 minutes, fluorescence at 540 nm, mean if determined several times

Sequence of human TPH1 (P17752 whole entry): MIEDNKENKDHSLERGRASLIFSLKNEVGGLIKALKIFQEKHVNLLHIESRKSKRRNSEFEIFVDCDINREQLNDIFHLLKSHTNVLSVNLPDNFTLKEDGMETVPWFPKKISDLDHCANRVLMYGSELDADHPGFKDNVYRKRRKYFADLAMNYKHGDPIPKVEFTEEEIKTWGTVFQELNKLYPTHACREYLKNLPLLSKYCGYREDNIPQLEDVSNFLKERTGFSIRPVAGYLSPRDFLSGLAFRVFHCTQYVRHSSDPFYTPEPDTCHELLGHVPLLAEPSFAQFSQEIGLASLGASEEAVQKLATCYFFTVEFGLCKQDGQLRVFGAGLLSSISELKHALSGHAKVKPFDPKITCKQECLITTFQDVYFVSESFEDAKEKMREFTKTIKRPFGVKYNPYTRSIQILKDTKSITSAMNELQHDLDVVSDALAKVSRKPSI

Compound | IC50 [1] [nM] | IC50 [2] [nM]
Cc1nc(C)c(C2c3c(nc4sc(C)nn34)CCN2C(=O)COc2ccc(NS(C)(=O)=O)nc2Cl)s1 (stereo not shown) [Example 1.68.2, N-(6-chloro-5-(2-(5-(2,4-dimethylthiazol-5-yl)-2-methyl-7,8-dihydro-[1,3,4]thiadiazolo[2′,3′:2,3]imidazo[4,5-c]pyridin-6(5H)-yl)-2-oxoethoxy)pyridin-2-yl)methanesulfonamide] | 9 | 
COc1ccc(C2c3c(nc4sccn34)CCN2C(=O)COc2ccc(CN3CCOCC3)cc2Cl)c(F)c1 (stereo not shown) [Example 6.3.1, 2-(2-chloro-4-(morpholinomethyl)phenoxy)-1-(5-(2-fluoro-4-methoxyphenyl)-7,8-dihydrothiazolo[2′,3′:2,3]-imidazo[4,5-c]pyridin-6(5H)-yl)ethanone] | 5 | 
Cc1nn2c3c(nc2s1)CCN(C(=O)COc1ccc(N2CCOCC2)nc1Cl)C3c1ccc(C(=O)N(C)C)o1 (stereo not shown) [Example 1.40.2, 5-(6-(2-((2-Chloro-6-morpholinopyridin-3-yl)oxy)acetyl)-2-methyl-5,6,7,8-tetrahydro-[1,3,4]thiadiazolo[2′,3′:2,3]imidazo[4,5-c]pyridin-5-yl)-N,N-dimethylfuran-2-carboxamide] |  | 12
Cc1nn2c3c(nc2s1)CCN(C(=O)COc1ccc(N(C)CC(F)(F)F)nc1Cl)C3c1cc(CN(C)C)cs1 (stereo not shown) [Example 1.8.5, 2-((2-chloro-6-(methyl(2,2,2-trifluoroethyl)amino)pyridine-3-yl)oxy)-1-(5-(4-((dimethylamino)methyl)thiophen-2-yl)-2-methyl-7,8-dihydro-[1,3,4]thiadiazolo[2′,3′:2,3]imidazo[4,5-c]pyridin-6(5H)-yl)ethanone] | 25 | 
Cc1nn2c3c(nc2s1)CCN(C(=O)COc1ccc(N2CCOCC2)nc1F)C3c1ncc(C2CC2)cc1F (stereo not shown) [Example 1.14.5, 1-(5-(5-cyclopropyl-3-fluoropyridin-2-yl)-2-methyl-7,8-dihydro-[1,3,4]thiadiazolo[2′,3′:2,3]imidazo[4,5-c]pyridine-6(5H)-yl)-2-((2-fluoro-6-morpholinopyridin-3-yl)oxy)ethanone] | 9 | 
Cc1nn2c3c(nc2s1)CCN(C(=O)COc1ccc(C(=O)NC2CC2)nc1C1CC1)C3c1ccc(Cl)cc1F (stereo not shown) [Example 1.4.55, 5-(2-(5-(4-chloro-2-fluorophenyl)-2-methyl-7,8-dihydro-[1,3,4]thiadiazolo[2′,3′:2,3]imidazo[4,5-c]pyridin-6(5H)-yl)-2-oxoethoxy)-N,6-dicyclopropylpicolinamide] | 9 | 
CCc1nc(N2CCCS2(=O)=O)ccc1OCC(=O)N1CCc2nc3sc(C)nn3c2[C@@H]1c1sc(C)nc1C [Example 1.68.8, (R)-1-(5-(2,4-dimethylthiazol-5-yl)-2-methyl-7,8-dihydro-[1,3,4]thiadiazolo[2′,3′:2,3]imidazo[4,5-c]pyridin-6(5H)-yl)-2-((6-(1,1-dioxidoisothiazolidin-2-yl)-2-ethylpyridin-3-yl)oxy)ethanone] | 5 | 
CCc1nc(N2CCCS2(=O)=O)ccc1OCC(=O)N1CCc2nc3sc(C(F)(F)F)nn3c2[C@@H]1c1ccc(Cl)cc1F [Example 5.1.4] | 7 | 
CCc1nc(NS(C)(=O)=O)ccc1OCC(=O)N1CCc2nc3sc(CF)nn3c2C1c1ncc(C)cc1F (stereo not shown) [Example 7.2.2, N-(6-ethyl-5-(2-(5-(3-fluoro-5-methylpyridin-2-yl)-2-(fluoromethyl)-7,8-dihydro-[1,3,4]thiadiazolo[2′,3′:2,3]imidazo[4,5-c]pyridin-6(5H)-yl)-2-oxoethoxy)pyridin-2-yl)methanesulfonamide] | 20 | 
Cc1nn2c3c(nc2s1)CCN(C(=O)COc1ccc(C#N)nc1Cl)C3c1sc(C(=O)N(C)C)cc1F (stereo not shown) [Example 1.24.4, 5-(6-(2-((2-chloro-6-cyanopyridin-3-yl)oxy)acetyl)-2-methyl-5,6,7,8-tetrahydro-[1,3,4]thiadiazolo[2′,3′:2,3]imidazo[4,5-c]pyridin-5-yl)-4-fluoro-N,N-dimethylthiophene-2-carboxamide] | 46 | 
CCc1nc(NS(C)(=O)=O)ccc1OCC(=O)N1CCc2nc3sc(C)nn3c2C1c1cc(F)c(C)cc1F (stereo not shown) [Example 1.74.1, N-(5-(2-(5-(2,5-difluoro-4-methylphenyl)-2-methyl-7,8-dihydro-[1,3,4]thiadiazolo[2′,3′:2,3]imidazo[4,5-c]pyridin-6(5H)-yl)-2-oxoethoxy)-6-ethylpyridin-2-yl)methanesulfonamide] | 25 | 
Cc1nn2c3c(nc2s1)CCN(C(=O)COc1ccc(N(C)CC(F)(F)F)nc1Cl)C3c1ccc(Cl)cc1F (stereo not shown) [Example 1.4.38, 1-(5-(4-chloro-2-fluorophenyl)-2-methyl-7,8-dihydro-[1,3,4]thiadiazolo[2′,3′:2,3]imidazo[4,5-c]pyridin-6(5H)-yl)-2-((2-chloro-6-(methyl(2,2,2-trifluoroethyl)amino)pyridin-3-yl)oxy)ethanone] | 3 | 
COC(=O)c1csc(C2c3c(nc4sc(C)nn34)CCN2C(=O)COc2ccc(N3CCOCC3)nc2Cl)c1 (stereo not shown) [Example 1.21.1, Methyl 5-(6-(2-((2-chloro-6-morpholinopyridin-3-yl)oxy)acetyl)-2-methyl-5,6,7,8-tetrahydro-[1,3,4]thiadiazolo[2′,3′:2,3]imidazo[4,5-c]pyridin-5-yl)thiophene-3-carboxylate] | 5 | 
CCc1nc(NS(C)(=O)=O)ccc1OCC(=O)N1CCc2nc3sc(C)nn3c2C1c1sc(C)nc1C (stereo not shown) [Example 1.68.7, N-(5-(2-(5-(2,4-dimethylthiazol-5-yl)-2-methyl-7,8-dihydro-[1,3,4]thiadiazolo[2′,3′:2,3]imidazo[4,5-c]-pyridin-6(5H)-yl)-2-oxoethoxy)-6-ethylpyridin-2-yl)methanesulfonamide] | 11 | 
CCc1nc(NS(C)(=O)=O)ccc1OCC(=O)N1CCc2nc3sc(C(F)(F)F)nn3c2C1c1sc(C)nc1C (stereo not shown) [Example 5.4.2, N-(5-(2-(5-(2,4-dimethylthiazol-5-yl)-2-(trifluoromethyl)-7,8-dihydro-[1,3,4]thiadiazolo[2′,3′:2,3]imidazo[4,5-c]pyridin-6(5H)-yl)-2-oxoethoxy)-6-ethylpyridin-2-yl)methanesulfonamide] | 27 | 
Cc1nn2c3c(nc2s1)CCN(C(=O)COc1ccc(N2CCOCC2)nc1Cl)C3c1cnc(OC(F)F)cc1C (stereo not shown) [Example 1.15.2, 2-((2-chloro-6-morpholinopyridin-3-yl)oxy)-1-(5-(6-(difluoromethoxy)-4-methylpyridin-3-yl)-2-methyl-7,8-dihydro-[1,3,4]thiadiazolo[2′,3′:2,3]imidazo[4,5-c]pyridin-6(5H)-yl)ethanone] | 7 | 
Cc1ccc(OCC(=O)N2CCc3nc4sc(C)nn4c3C2c2ccc(C3CC3)cc2F)c(C)n1 (stereo not shown) [Example 1.6.3, 1-(5-(4-cyclopropyl-2-fluorophenyl)-2-methyl-7,8-dihydro-[1,3,4]thiadiazolo[2′,3′:2,3]imidazo[4,5-c]pyridin-6(5H)-yl)-2-((2,6-dimethylpyridin-3-yl)oxy)ethanone] | 13 | 
Cc1ccc(C2c3c(nc4sccn34)CCN2C(=O)COc2cccnc2Cl)c(F)c1 (stereo not shown) [Example 6.10.3, 2-((2-chloropyridin-3-yl)oxy)-1-(5-(2-fluoro-4-methyl-phenyl)-7,8-dihydrothiazolo[2′,3′:2,3]imidazo[4,5-c]-pyridin-6(5H)-yl)ethanone] | 14 | 
Cc1nn2c3c(nc2s1)CCN(C(=O)COc1ccc(C#N)nc1Cl)C3c1ncc(C2CC2)cc1F (stereo not shown) [Example 1.14.4, 6-chloro-5-(2-(5-(5-cyclopropyl-3-fluoropyridin-2-yl)-2-methyl-7,8-dihydro-[1,3,4]thiadiazolo[2′,3′:2,3]imidazo[4,5-c]pyridin-6(5H)-yl)-2-oxoethoxy)picolinonitrile] | 17 | 
O=C(COc1ccc(CN2CCOCC2)nc1Cl)N1CCc2nc3sccn3c2C1c1cccnc1F (stereo not shown) [Example 6.2.7, ((2-chloro-6-(morpholinomethyl)pyridin-3-yl)oxy)-1-(5-(2-fluoropyridin-3-yl)-7,8-dihydrothiazolo[2′,3′:2,3]-imidazo[4,5-c]pyridin-6(5H)-yl)ethanone] | 235 | 
Cc1nn2c3c(nc2s1)CCN(C(=O)COc1ccc(N2CCC(F)(F)CC2)nc1Cl)C3c1ccc(Cl)cc1F (stereo not shown) [Example 1.4.32, 1-(5-(4-Chloro-2-fluorophenyl)-2-methyl-7,8-dihydro-[1,3,4]thiadiazolo[2′,3′:2,3]imidazo[4,5-c]pyridin-6(5H)-yl)-2-((2-chloro-6-(4,4-difluoropiperidin-1-yl)pyridin-3-yl)oxy)ethanone] |  | 3
Cc1nn2c3c(nc2s1)CCN(C(=O)COc1ccc(NS(C)(=O)=O)nc1Cl)C3c1sc(C(=O)N(C)C)cc1F (stereo not shown) [Example 1.24.9, 5-(6-(2-((2-chloro-6-(methylsulfonamido)pyridin-3-yl)oxy)acetyl)-2-methyl-5,6,7,8-tetrahydro-[1,3,4]thiadiazolo [2′,3′:2,3]imidazo[4,5-c]pyridin-5-yl)-4-fluoro-N,N-dimethylthiophene-2-carboxamide] | 6 | 
Cc1ncc(OCC(=O)N2CCc3nc4sc(C)nn4c3C2c2ccc(Cl)cc2F)c(C)n1 (stereo not shown) [Example 1.4.45, 1-(5-(4-chloro-2-fluorophenyl)-2-methyl-7,8-dihydro-[1,3,4]thiadiazolo[2′,3′:2,3]imidazo[4,5-c]pyridin-6(5H)-yl)-2-((2,4-dimethylpyrimidin-5-yl)oxy)ethanone] | 98 | 
CCc1nc(N2CCCS2(=O)=O)ccc1OCC(=O)N1CCc2nc3sc(C(F)F)nn3c2C1c1sc(C)nc1C (stereo not shown) [Example 8.3.2, 1-(2-(difluoromethyl)-5-(2,4-dimethylthiazol-5-yl)-7,8-dihydro-[1,3,4]thiadiazolo[2′,3′:2,3]imidazo[4,5-c]pyridin-6(5H)-yl)-2-((6-(1,1-dioxidoisothiazolidin-2-yl)-2-ethylpyridin-3-yl)oxy)ethanone] | 13 | 
Cc1nn2c3c(nc2s1)CCN(C(=O)COc1ccc(C(F)(F)F)nc1Cl)C3c1scnc1C (stereo not shown) [Example 1.32.4, 2-((2-chloro-6-(trifluoromethyl)pyridin-3-yl)oxy)-1-(2-methyl-5-(4-methylthiazol-5-yl)-7,8-dihydro-[1,3,4]thiadiazolo [2′,3′:2,3]imidazo[4,5-c]pyridin-6(5H)-yl)ethanone] | 21 | 
